The numbers were not newly measured in article PMC12291913 (Antibiotics, 2025), which cites them from elsewhere.

≈ marks a conversion by molar mass, not a printed value.

Common to all, as to conditions: drug alone, previous study ref 17; cited from earlier work
For data set [1], the system named is M. avium clinical isolate Koav 3 (GyrA Asp95Gly).
Data set [2] concerns M. avium clinical isolate Koav 11 (GyrA Asp95Tyr).
Data set [3] deals with M. avium clinical isolate Koav 20 (WT).
For data set [4], the system named is M. avium clinical isolate Cl-A-2 (GyrA Asp95Tyr).
For data set [5], the system named is M. avium clinical isolate Koav 21 (WT).
The subject of data set [6] is M. avium clinical isolate Koav 1 (WT).
The test system of data set [7] is M. avium clinical isolate Koav 2 (WT).
For data set [8], the system named is M. avium clinical isolate Koav 13 (GyrA Asp95Gly).
The test system of data set [9] is M. avium clinical isolate Koav 15 (WT).
The subject of data set [10] is M. avium clinical isolate Koav 19 (WT).
The subject of data set [11] is M. avium clinical isolate Koav 25 (WT).

As for `C[C@H]1COc2c(N3CCN(C)CC3)c(F)cc3c(=O)c(C(=O)O)cn1c23` [LVX, levofloxacin], the MIC is on record as 64 µg/mL (≈ 177 µM) in data set [1]; 8 µg/mL (≈ 22.1 µM) in data set [2]; below 0.5 µg/mL in [3]; 64 µg/mL (≈ 177 µM) in data set [4]; 4 µg/mL (≈ 11.1 µM) in data set [5]; below 0.5 µg/mL in data set [6]. Also, the MIC in data set [7] is 2 µg/mL (≈ 5.53 µM); in data set [8], 128 µg/mL (≈ 354 µM); in data set [9] it was 4 µg/mL (≈ 11.1 µM); in data set [10] it was 2 µg/mL (≈ 5.53 µM); in data set [11], 4 µg/mL (≈ 11.1 µM).

Broadly, the MIC is the lowest concentration found to suppress growth.
